Each structure is given as a SMILES string. pIC50: −log10 of the molar value. Where a name gives a salt, the structure may show the parent alone.

As usually defined, the IC50 is the concentration that inhibits the measured activity by half. The term pIC50 denotes the negative decadic logarithm of the IC50, by convention in mol/L.

For one assay, the system named is HIV. The experiment in a line: MT4 assay: antiviral HIV activity in MT-4 cells. Type of assay: cell-based. The conditions noted are these: Human immunodeficiency virus 1, MT4, 96 h, read-out: HIV MT4 Assay IC50 (μM), HTLV-1 transformed cell line MT-4; read-out 96 hours later with cell titer glo; 10 point dose response. Put shortly: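 Compounds tested in HTLV-1-transformed MT-4 cells for protection from HIV, with cytotoxicity run in parallel under the same conditions; CellTiter-Glo luminescence read 96 h later. IC50 from 10-point, 3–4-fold serial dilutions spanning >1000-fold, % inhibition relative to no-compound control, fitted by four-parameter logistic.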
As to `Cc1nc2c(ccn2Cc2ccc(F)cc2Cl)c(-c2ccc(Cl)cc2)c1[C@H](OC(C)(C)C)C(=O)O` [Example 89, (S)-2-(tert-butoxy)-2-(1-(2-chloro-4-fluorobenzyl)-4-(4-chlorophenyl)-6-methyl-1H-pyrrolo[2,3-b]pyridin-5-yl)acetic acid], the concentration for half-maximal inhibition (IC50) came to 0.065 µM.

With `Cc1nc2c(ccn2Cc2c(F)cccc2F)c(-c2ccc3c(c2)CCCO3)c1C(OC(C)(C)C)C(=O)O` (stereo not drawn) [Example 51, 2-(tert-butoxy)-2-(4-(chroman-6-yl)-1-(2,6-difluorobenzyl)-6-methyl-1H-pyrrolo[2,3-b]pyridin-5-yl)acetic acid], the IC50 worked out at 0.09 µM. Still for that read-out and setting: for `Cc1ccc(-c2c([C@@H](OC(C)(C)C)C(=O)O)c(C)nc3c2ccn3Cc2ccc(F)c(F)c2)cc1` [Example 17, (R)-2-(tert-butoxy)-2-(1-(3,4-difluorobenzyl)-6-methyl-4-(p-tolyl)-1H-pyrrolo[2,3-b]pyridin-5-yl)acetic acid] the value was 10 µM; for `Cc1nc2c(c(-c3ccc4c(c3C)CCCO4)c1[C@H](OC(C)(C)C)C(=O)O)CCN2Cc1ccc(F)c(F)c1` [Example 107, (2S)(M)-2-(tert-Butoxy)-2-(1-(3,4-difluorobenzyl)-6-methyl-4-(5-methylchroman-6-yl)-2,3-dihydro-1H-pyrrolo[2,3-b]pyridin-5-yl)acetic acid, Trifluoroacetic acid salt], 0.008 µM. As for `COc1c(C)cc(-c2c(C(OC(C)(C)C)C(=O)O)c(C)nc3c2ccn3Cc2ccc(F)cc2)cc1C` (stereo not drawn) [Example 92, 2-(tert-Butoxy)-2-(1-(4-fluorobenzyl)-4-(4-methoxy-3,5-dimethylphenyl)-6-methyl-1H-pyrrolo[2,3-b]pyridin-5-yl)acetic acid], the half-inhibitory concentration (IC50) is 0.98 µM.

As for `Cc1nc2c(ccn2Cc2ccc(C(F)(F)F)cc2F)c(-c2ccc3c(c2)CCCO3)c1C(OC(C)(C)C)C(=O)O` (stereo not drawn) [Example 59, 2-(tert-butoxy)-2-(4-(chroman-6-yl)-1-(2-fluoro-4-(trifluoromethyl)benzyl)-6-methyl-1H-pyrrolo[2,3-b]pyridin-5-yl)acetic acid], the half-inhibitory concentration (IC50) amounted to 0.38 µM.

Take `Cc1ccc(-c2c(C(OC(C)(C)C)C(=O)O)c(C)nc3c2ccn3Cc2ccccn2)cc1` (stereo not drawn) [Example 4, 2-(tert-Butoxy)-2-(6-methyl-1-(pyridin-2-ylmethyl)-4-(p-tolyl)-1H-pyrrolo[2,3-b]pyridin-5-yl)acetic acid, Trifluoroacetic acid salt]: the concentration for half-maximal inhibition (IC50) is 1.05 µM. On the same count and under the same terms, with `Cc1cc(Cn2ccc3c(-c4ccc5c(c4)CCCO5)c(C(OC(C)(C)C)C(=O)O)c(C)nc32)ccc1F` (stereo not drawn) [Example 30, 2-(tert-butoxy)-2-(4-(chroman-6-yl)-1-(4-fluoro-3-methylbenzyl)-6-methyl-1H-pyrrolo[2,3-b]pyridin-5-yl)acetic acid] the figure was 0.07 µM; with `Cc1ccc(-c2c(C(OC(C)(C)C)C(=O)O)c(C)nc3c2ccn3CC(C)(C)C)cc1` (stereo not drawn) [Example 76, 2-(tert-butoxy)-2-(6-methyl-1-neopentyl-4-(p-tolyl)-1H-pyrrolo[2,3-b]pyridin-5-yl)acetic acid], 0.9 µM; with `Cc1nc2c(ccn2CC2CCCCC2)c(-c2ccc3c(c2)CCCO3)c1C(OC(C)(C)C)C(=O)O` (stereo not drawn) [Example 65, 2-(tert-butoxy)-2-(4-(chroman-6-yl)-1-(cyclohexylmethyl)-6-methyl-1H-pyrrolo[2,3-b]pyridin-5-yl)acetic acid], 0.59 µM. As to `Cc1nc2c(ccn2C2(c3ccc(F)cc3)CC2)c(-c2ccc3c(c2)CCCO3)c1C(OC(C)(C)C)C(=O)O` (stereo not drawn) [Example 82, 2-(tert-butoxy)-2-(4-(chroman-6-yl)-1-(1-(4-fluorophenyl)cyclopropyl)-6-methyl-1H-pyrrolo[2,3-b]pyridin-5-yl)acetic acid], the IC50 was determined as 0.3 µM.

Still in this assay, the particulars now being: read-out: HIV MT4 Assay IC50; HTLV-1 transformed cell line MT-4; read-out 96 hours later with cell titer glo; 10 point dose response.
Turning to `Cc1nc2c(ccn2C(C)c2ccc(F)c(F)c2)c(-c2ccc3c(c2)CCCO3)c1C(OC(C)(C)C)C(=O)O` (stereo not drawn) [Example 71, 2-(tert-butoxy)-2-(4-(chroman-6-yl)-1-(1-(3,4-difluorophenyl)ethyl)-6-methyl-1H-pyrrolo[2,3-b]pyridin-5-yl)acetic acid], the pIC50 was 7.80.

For the origin of these results see patent publication US8609653B2, “Azaindole compounds and methods for treating HIV” (priority 2011, dated 2013).
